Test results published in patent US8110681B2, “Compounds for the treatment of spinal muscular atrophy and other uses” (The United States of America as represented by the …, priority 2006, dated 2012).

System: SMN2-linked luciferase-reporter gene construct
Experiment: SMN splice reporter assay (SMN2-linked luciferase reporter, Example 10)
Assay type: cell-based
Conditions: average; for EC50: SMN2-linked luciferase reporter; for maximal fold induction: read-out: SMN Splice Reporter Assay (Example 10) Avg MaxFold Increase
Description: Cervical carcinoma cell lines were transformed with a SMN2-linked luciferase-reporter gene construct. The reporter is designed to detect shifts in the alternative splicing of SMN2 sequences. In particular, the reporter is constructed as a fusion of the alternatively spliced sequences of the SMN2 gene and the luciferase gene. Luciferase sequences are in the correct translational reading frame only when the SMN2 sequences are spliced according to the normal SMN1 mechanism (e.g., splicing to include exon 7), which allows for translation of the stable SMN protein. Compounds were tested in the assay by administering the compound to the cell line and detecting an increase in the luciferase activity. The assay is described in greater detail in Zhang et al., Gene Ther., 8, 1532-8 (2001). Compounds were administered as described in Lunn et al, Chem. & Biol, 11, 1489-1493 (2004).
The results are reported as a fold-increase over a baseline reading of transformed cells without any test compound.

[1] = maximum fold increase of reporter signal

Row | Structure (SMILES) | EC50 | SMN Splice Reporter Assay (Example 10) Avg MaxFold Increase [1] | maximal fold induction [1]
1 | CC(C(=O)OC(C)(C)C)c1ccc(N2Cc3ccccc3C2=O)cc1 (stereo not shown) [ALB-111730] | 1660 nM | 1.267 | –
2 | COC(=O)C(C)c1ccc(N2Cc3ccccc3C2=O)cc1 (stereo not shown) [ALB-111731] | 174 nM | – | 1.43
3 | CCOC(=O)C(C)c1ccc(N2Cc3ccccc3C2=O)cc1 (stereo not shown) [ALB-111732] | 325 nM | – | 1.41
4 | CC(C(=O)OCc1ccccc1)c1ccc(N2Cc3ccccc3C2=O)cc1 (stereo not shown) [ALB-111733] | 528 nM | – | 1.56
5 | CC(C(=O)NS(C)(=O)=O)c1ccc(N2Cc3ccccc3C2=O)cc1 (stereo not shown) [ALB-111744] | – | – | 1.14
6 | CC(C(=O)NC#N)c1ccc(N2Cc3ccccc3C2=O)cc1 (stereo not shown) [ALB-111746] | – | – | 1.11
7 | CC(C(=O)NS(=O)(=O)c1ccccc1)c1ccc(N2Cc3ccccc3C2=O)cc1 (stereo not shown) [ALB-111747] | – | – | 1.04
8 | CC(C(=O)OC(C)(C)C)c1ccc(N2Cc3c(Cl)cccc3C2=O)cc1 (stereo not shown) [ALB-111760] | – | – | 1.07
9 | CC(C(=O)OC(C)(C)C)c1ccc(N2Cc3cc(-c4ccc(Cl)c(Cl)c4)ccc3C2=O)cc1 (stereo not shown) [ALB-111854] | – | – | 1.04
10 | CCCC(C)(C(=O)O)c1ccc(N2Cc3ccccc3C2=O)cc1 (stereo not shown) [ALB-111857] | – | – | 1.07
11 | CC(C(=O)OC(C)(C)C)c1ccc(N2Cc3cc(-c4cccnc4)ccc3C2=O)cc1 (stereo not shown) [ALB-111884] | – | – | 1.03
12 | CC(C(=O)O)c1ccc(N2Cc3cc(-c4ccc(Cl)c(Cl)c4)ccc3C2=O)cc1 (stereo not shown) [ALB-111885] | – | – | 1.09
13 | CC(C(=O)OC(C)(C)C)c1ccc(N2Cc3cc(-c4ccc(Cl)cc4)ccc3C2=O)cc1 (stereo not shown) [ALB-111886] | – | – | 1.07
14 | Cc1ccc(-c2ccc3c(c2)CN(c2ccc(C(C)C(=O)OC(C)(C)C)cc2)C3=O)cc1 (stereo not shown) [ALB-111887] | – | – | 1.04
15 | CC(C(=O)OC(C)(C)C)c1ccc(N2Cc3cc(-c4ccccc4)ccc3C2=O)cc1 (stereo not shown) [ALB-111888] | – | – | 1.1
16 | CC(C(=O)O)c1ccc(N2Cc3cc(-c4cccnc4)ccc3C2=O)cc1 (stereo not shown) [ALB-111889] | – | – | 1.05
17 | COc1ccc2c(c1)CN(c1ccc(C(C)C(=O)OC(C)(C)C)cc1)C2=O (stereo not shown) [ALB-111893] | – | – | 1.09
18 | COc1cccc2c1CN(c1ccc(C(C)C(=O)O)cc1)C2=O (stereo not shown) [ALB-111895] | – | – | 1.15
19 | CC(C(=O)O)c1ccc(N2Cc3cc(N)ccc3C2=O)cc1 (stereo not shown) [ALB-111950a] | – | – | 1.07
20 | CC(C(=O)OC(C)(C)C)c1ccc(N2Cc3cccc([N+](=O)[O-])c3C2=O)cc1 (stereo not shown) [ALB-111951] | – | – | 1.2
21 | CC(C(=O)OC(C)(C)C)c1ccc(N2Cc3c(N)cccc3C2=O)cc1 (stereo not shown) [ALB-111952] | – | – | 1.04
22 | COc1ccc(C(=O)Nc2ccc3c(c2)C(=O)N(c2ccc(C(C)C(=O)OC(C)(C)C)cc2)C3)cc1 (stereo not shown) [ALB-111954] | – | – | 1.04
23 | COc1cccc2c1C(=O)N(c1ccc(C(C)C(=O)O)cc1)C2 (stereo not shown) [ALB-111957] | – | – | 1.23
24 | CC(C(=O)OC(C)(C)C)c1ccc(N2Cc3ccc(NC(=O)c4ccccc4)cc3C2=O)cc1 (stereo not shown) [ALB-111958] | – | – | 1.06
25 | CC(C(=O)O)c1ccc(N2Cc3ccccc3C2=O)cc1Br (stereo not shown) [ALB-111962] | – | – | 1.08
26 | CC(C(=O)OC(C)(C)C)c1ccc(N2Cc3ccccc3C2=O)cc1-c1ccc(Cl)c(Cl)c1 (stereo not shown) [ALB-111963] | – | – | 1.02
27 | CC(C(=O)O)c1ccc(N2Cc3ccc(NC(=O)c4ccc(Cl)cc4)cc3C2=O)cc1 (stereo not shown) [ALB-111983] | – | – | 1.06

Second part, led by results:

Row | EC50 | Structure (SMILES) | SMN Splice Reporter Assay (Example 10) Avg MaxFold Increase [1] | maximal fold induction [1]
28 | 2300 nM | CC(C(=O)OC(C)(C)C)c1ccc(N2Cc3ccccc3C2=O)cc1 (stereo not shown) [ALB-111738] | – | 1.17
29 | 2020 nM | CC(C(=O)OC(C)(C)C)c1ccc(N2Cc3ccc(Cl)cc3C2=O)cc1 (stereo not shown) [ALB-111740] | – | 1.49
30 | 2120 nM | CC(C(=O)OC(C)(C)C)c1ccc(N2Cc3ccc(N)cc3C2=O)cc1 (stereo not shown) [ALB-111745] | – | 1.17
31 | 2270 nM | CC(C(=O)NO)c1ccc(N2Cc3ccccc3C2=O)cc1 (stereo not shown) [ALB-111748] | – | 1.38
32 | 14000 nM | CC(C(=O)NS(=O)(=O)N(C)C)c1ccc(N2Cc3ccccc3C2=O)cc1 (stereo not shown) [ALB-111749] | – | 1.16
33 | 5560 nM | CC(C(=O)OC(C)(C)C)c1ccc(N2Cc3cc(Cl)ccc3C2=O)cc1 (stereo not shown) [ALB-111761] | – | 1.19
34 | 358 nM | CC(C(=O)O)c1ccc(N2Cc3cc(Cl)ccc3C2=O)cc1 (stereo not shown) [ALB-111762] | – | 1.38
35 | 13900 nM | CC(C(=O)O)c1ccc(N2Cc3c(Cl)cccc3C2=O)cc1 (stereo not shown) [ALB-111763] | – | 1.17
36 | 1560 nM | CC(C(=O)OC(C)(C)C)c1ccc(N2Cc3cccc(Cl)c3C2=O)cc1 (stereo not shown) [ALB-111783] | – | 1.13
37 | 1130 nM | CC(C(=O)O)c1ccc(N2Cc3cccc(Cl)c3C2=O)cc1 (stereo not shown) [ALB-111784] | – | 1.41
38 | 25800 nM | CCCC1c2ccccc2C(=O)N1c1ccc(C(C)C(=O)O)cc1 (stereo not shown) [ALB-111795] | – | 1.41
39 | 3520 nM | CC(C)(C(=O)O)c1ccc(N2Cc3ccccc3C2=O)cc1 [ALB-111796] | – | 1.22
40 | 21400 nM | CC(C(=O)OC(C)(C)C)c1ccc(N2Cc3cc(Br)ccc3C2=O)cc1 (stereo not shown) [ALB-111853] | – | 1.1
41 | 553 nM | CC(C(=O)O)c1ccc(N2Cc3cc(Br)ccc3C2=O)cc1 (stereo not shown) [ALB-111855] | – | 1.35
42 | 568 nM | CC(C(=O)NS(=O)(=O)C(C)C)c1ccc(N2Cc3ccccc3C2=O)cc1 (stereo not shown) [ALB-111856] | – | 1.14
43 | 2830 nM | CC(C(=O)OC(C)(C)C)c1ccc(N2Cc3ccccc3C2=O)cc1Br (stereo not shown) [ALB-111882] | – | 1.24
44 | 1260 nM | CC(C(=O)O)c1ccc(N2Cc3ccc(N)cc3C2=O)cc1 (stereo not shown) [ALB-111883a] | – | 1.17
45 | 7740 nM | CC(C(=O)O)c1ccc(N2Cc3cc(-c4ccc(Cl)cc4)ccc3C2=O)cc1 (stereo not shown) [ALB-111890] | – | 1.16
46 | 8880 nM | Cc1ccc(-c2ccc3c(c2)CN(c2ccc(C(C)C(=O)O)cc2)C3=O)cc1 (stereo not shown) [ALB-111891] | – | 1.31
47 | 4310 nM | COc1ccc(-c2ccc3c(c2)CN(c2ccc(C(C)C(=O)O)cc2)C3=O)cc1 (stereo not shown) [ALB-111892] | – | 1.46
48 | 3160 nM | COc1cccc2c1CN(c1ccc(C(C)C(=O)OC(C)(C)C)cc1)C2=O (stereo not shown) [ALB-111894] | – | 1.29
49 | 5220 nM | CC(C(=O)OC(C)(C)C)c1ccc(N2Cc3cc(N)ccc3C2=O)cc1 (stereo not shown) [ALB-111949] | – | 1.29
50 | 396 nM | COc1cccc2c1C(=O)N(c1ccc(C(C)C(=O)OC(C)(C)C)cc1)C2 (stereo not shown) [ALB-111955] | – | 1.08
51 | 451 nM | COc1ccc2c(c1)CN(c1ccc(C(C)C(=O)O)cc1)C2=O (stereo not shown) [ALB-111959] | – | 1.26
52 | 6620 nM | CC(=O)Nc1ccc2c(c1)C(=O)N(c1ccc(C(C)C(=O)OC(C)(C)C)cc1)C2 (stereo not shown) [ALB-111960] | – | 1.24
53 | 1420 nM | CC(C(=O)O)c1ccc(N2C(=O)c3ccccc3C2C)cc1 (stereo not shown) [ALB-111964] | – | 1.63
54 | 9460 nM | COc1ccc(C(=O)Nc2ccc3c(c2)C(=O)N(c2ccc(C(C)C(=O)O)cc2)C3)cc1 (stereo not shown) [ALB-111984] | – | 1.19
